These results are taken from ChEMBL document CHEMBL3351762, “The fungal natural product (1S,3S)-austrocortirubin induces DNA damage in HCT116 cells via a mechanism unique from other DNA damaging agents” (Bioorg Med Chem Lett, 2015).

Activity calls are given as the source filed them. The rule behind the calls is not given here. A value given as a limit tells only on which side of the number the result lay.

A short description of assay [1]: Cytotoxicity against human HCT116 cells after 72 hrs by cell counting Kit-8 assay. The settings on record: HCT-116, 72 h. It is filed as functional, cell-based.
Assay [2] deals with HCT-116. Kind of assay: Induction of DNA damage in human HCT116 cells at G2/M phase at 100 to 200 uM after 24 hrs by gamma-H2AX-staining based-flow cytometry. The assay is classed as functional. Background: A flow cytometer gives signals particle by particle.
Assay [3] relates to HCT-116. Nature of the assay: Induction of DNA damage in human HCT116 cells at S phase at 100 to 200 uM after 24 hrs by gamma-H2AX-staining based-flow cytometry. The assay is classed as functional.
Assay [4] in a line: Cell cycle arrest in human HCT116 cells assessed as decrease in accumulation at S phase at 100 to 200 uM after 24 by flow cytometry. The assay is classed as functional, cell-based. The settings on record: HCT-116.
Assay [5] can be described thus: Cell cycle arrest in human HCT116 cells assessed as cells at M phase at 100 to 200 nM after 24 by flow cytometry. As to conditions: HCT-116.
Assay [6] relates to HCT-116. Nature of the assay: Induction of DNA damage in human HCT116 cells at G0/G1 phase at 100 to 200 nM after 24 hrs by gamma-H2AX-staining based-flow cytometry.
The nature of assay [7]: Cell cycle arrest in human HCT116 cells assessed as increase in accumulation at G2/M phase at 100 to 200 uM after 24 by flow cytometry. It is filed as functional, cell-based. The settings on record: HCT-116.
Assay [8] can be described thus: Cell cycle arrest in human HCT116 cells assessed as increase in accumulation at S phase at 15 to 30 uM after 24 by flow cytometry. It is filed as functional, cell-based. The settings on record: HCT-116.
Assay [9] concerns HCT-116. Kind of assay: Induction of apoptosis in human HCT116 cells assessed as early-stage apoptotic cells at 15 uM after 24 to 48 hrs by Annexin V/PI-FITC staining based flow cytometry. The assay is classed as functional.
The subject of assay [10] is HCT-116. Kind of assay: Induction of DNA damage in human HCT116 cells at S phase at 15 to 30 uM after 24 hrs by gamma-H2AX-staining based-flow cytometry. The assay is classed as functional.
Assay [11] relates to HCT-116. Nature of the assay: Induction of DNA damage in human HCT116 cells at G2/M phase at 15 to 30 uM after 24 hrs by gamma-H2AX-staining based-flow cytometry. The assay is classed as functional.
Assay [12] is described as follows: Cell cycle arrest in human HCT116 cells assessed as cells at M phase at 15 to 30 uM after 24 by flow cytometry. As to conditions: HCT-116. It is filed as functional, cell-based.
Assay [13] in a line: Cell cycle arrest in human HCT116 cells assessed as increase in accumulation at G2/M phase at 15 to 30 uM after 24 by flow cytometry. As to conditions: HCT-116. It is filed as functional, cell-based.
The test system of assay [14] is HCT-116. Nature of the assay: Induction of apoptosis in human HCT116 cells assessed as increase in mitosis at 20 uM after 24 by flow cytometry. It is filed as functional.
The nature of assay [15]: Cell cycle arrest in human HCT116 cells assessed as increase in accumulation at G2/M phase at 20 uM after 24 by flow cytometry. It is filed as functional, cell-based. As to conditions: HCT-116.
A short description of assay [16]: Cell cycle arrest in human HCT116 cells assessed as increase in accumulation at S phase at 20 uM after 24 by flow cytometry. The assay is classed as functional, cell-based. The settings on record: HCT-116.

Take `C[C@]1(O)Cc2c(O)c3c(c(O)c2[C@@H](O)C1)C(=O)C=C(NCCc1ccccc1)C3=O`: the IC50 (usually the concentration at which inhibition is half-maximal) in [1] was 16 µM.
Same read-out and setting: with `COC1=CC(=O)c2c(O)c3c(c(O)c2C1=O)C[C@@](C)(O)C[C@@H]3O` the figure was 23.7 µM; with `COC1=CC(=O)c2c(O)c3c(c(O)c2C1=O)C[C@](C)(O)CC3`, 26.8 µM; with `C[C@]1(O)Cc2c(O)c3c(c(O)c2[C@@H](O)C1)C(=O)C=C(NCCc1ccc(Cl)cc1)C3=O`, 10.1 µM.
With `COc1cccc2c1C(=O)c1c(O)c3c(c(O)c1C2=O)C[C@@](O)(C(=O)CO)C[C@@H]3O[C@H]1C[C@H](N)[C@H](O)[C@H](C)O1` [DOXORUBICIN], the Activity in assay [2] and in [3] was 50% in each case. Also, the result in assay [4] and in [7] was Active. Further, the outcome in assay [5] and in assay [6] was inactive. The same compound showed an IC50 in [1] of 0.0199 µM.
With `COc1cc(O)c2c(c1O)C(=O)c1cc(C)ccc1C2=O` [AUSTROCORTIRUBIN], the IC50 in assay [1] was > 50 µM.
For the compound `COC1=CC(=O)c2c(O)c3c(c(O)c2C1=O)C[C@](C)(O)C[C@@H]3O`, the result in assay [8] and in [13] was Active. For the same compound, the results for the Activity in assay [9], in assay [10] and in [11] were 75%, 90% and 50%, respectively. In addition, it took 3.7 µM to reach half-maximal inhibition in assay [1] (IC50). The result in assay [12] was inactive.
On to `CC(=O)O[C@H]1C(=O)[C@@]2(C)[C@H]([C@H](OC(=O)c3ccccc3)[C@]3(O)C[C@H](OC(=O)[C@H](O)[C@@H](NC(=O)c4ccccc4)c4ccccc4)C(C)=C1C3(C)C)[C@]1(OC(C)=O)CO[C@@H]1C[C@@H]2O` [PACLITAXEL], for which the “fold change (FC)” value in [14] stood at 3. For the same compound, the outcome in assay [15] and in assay [16] was Active. Also, the IC50 in assay [1] turned out to be 0.0027 µM.
